Legend:
Ba/F3 LMNA-NTRK1 cells = assay: Assay for inhibiting the proliferation of Ba/F3 LMNA-NTRK1 cells (CCK-8); assay type: cell-based; details: Mus musculus, BaF3
Summary of the method: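 Cells were seeded and cultured overnight, then treated with graded compound concentrations (final DMSO 0.25%) for 72 h. CCK-8 was added for 1–2 h at 37 °C and OD450 read. Survival was normalised to untreated and cell-free blank wells, and IC50 was fitted.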

TRKA kinase = TRKA kinase (Homo sapiens (Human), UniProt P04629); assay: Assay of small molecular compounds for inhibiting the activity of TRKA kinase (LANCE TR-FRET); assay type: biochemical
Chain of TRKA kinase (P04629 33-796): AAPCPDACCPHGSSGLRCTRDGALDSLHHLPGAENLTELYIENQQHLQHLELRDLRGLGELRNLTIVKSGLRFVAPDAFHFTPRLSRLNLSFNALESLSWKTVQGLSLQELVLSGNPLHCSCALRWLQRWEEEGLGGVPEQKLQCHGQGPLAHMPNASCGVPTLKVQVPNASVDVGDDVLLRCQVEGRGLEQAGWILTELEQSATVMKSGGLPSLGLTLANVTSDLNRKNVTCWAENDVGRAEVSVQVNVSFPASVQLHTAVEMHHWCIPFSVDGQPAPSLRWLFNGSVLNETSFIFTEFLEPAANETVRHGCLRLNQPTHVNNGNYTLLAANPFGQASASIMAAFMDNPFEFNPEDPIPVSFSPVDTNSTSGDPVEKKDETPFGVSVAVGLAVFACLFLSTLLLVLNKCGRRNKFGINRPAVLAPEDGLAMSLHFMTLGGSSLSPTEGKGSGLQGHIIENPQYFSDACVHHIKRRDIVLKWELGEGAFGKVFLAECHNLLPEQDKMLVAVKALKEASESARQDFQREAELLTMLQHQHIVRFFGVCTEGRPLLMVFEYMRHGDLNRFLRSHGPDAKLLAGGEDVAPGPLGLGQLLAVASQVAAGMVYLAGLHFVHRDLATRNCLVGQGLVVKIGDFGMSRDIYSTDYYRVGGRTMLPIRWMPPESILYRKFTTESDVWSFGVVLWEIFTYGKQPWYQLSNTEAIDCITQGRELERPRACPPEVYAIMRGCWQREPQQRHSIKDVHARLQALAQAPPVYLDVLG
Summary of the method: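 LANCE TR-FRET with ULight-TK peptide; compounds pre-incubated 5 min with TRKA (2× solution 2 nM), then substrate/ATP added (4× mix: 400 nM peptide, 40 μM ATP). Reaction 60 min at room temperature in dark, 1% DMSO final; stopped, detection developed 60 min, signal read.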

Ba/F3-AXL cells = assay: Assay for inhibiting the proliferation of Ba/F3-AXL cells (CCK-8); assay type: cell-based; details: 72 hours of incubation, medium with 100 ng/mL hGas6, CCK-8
Method: The values were then imported into Graphpad Prism 5 software for curve fitting, and IC50 was calculated.

c-MET kinase = c-MET kinase (Homo sapiens (Human), UniProt P08581); assay: Assay of small molecular compounds for inhibiting the activity of c-MET kinase (LANCE TR-FRET); assay type: biochemical; details: read-out: CMET IC50
Chain of c-MET kinase (P08581 25-1390): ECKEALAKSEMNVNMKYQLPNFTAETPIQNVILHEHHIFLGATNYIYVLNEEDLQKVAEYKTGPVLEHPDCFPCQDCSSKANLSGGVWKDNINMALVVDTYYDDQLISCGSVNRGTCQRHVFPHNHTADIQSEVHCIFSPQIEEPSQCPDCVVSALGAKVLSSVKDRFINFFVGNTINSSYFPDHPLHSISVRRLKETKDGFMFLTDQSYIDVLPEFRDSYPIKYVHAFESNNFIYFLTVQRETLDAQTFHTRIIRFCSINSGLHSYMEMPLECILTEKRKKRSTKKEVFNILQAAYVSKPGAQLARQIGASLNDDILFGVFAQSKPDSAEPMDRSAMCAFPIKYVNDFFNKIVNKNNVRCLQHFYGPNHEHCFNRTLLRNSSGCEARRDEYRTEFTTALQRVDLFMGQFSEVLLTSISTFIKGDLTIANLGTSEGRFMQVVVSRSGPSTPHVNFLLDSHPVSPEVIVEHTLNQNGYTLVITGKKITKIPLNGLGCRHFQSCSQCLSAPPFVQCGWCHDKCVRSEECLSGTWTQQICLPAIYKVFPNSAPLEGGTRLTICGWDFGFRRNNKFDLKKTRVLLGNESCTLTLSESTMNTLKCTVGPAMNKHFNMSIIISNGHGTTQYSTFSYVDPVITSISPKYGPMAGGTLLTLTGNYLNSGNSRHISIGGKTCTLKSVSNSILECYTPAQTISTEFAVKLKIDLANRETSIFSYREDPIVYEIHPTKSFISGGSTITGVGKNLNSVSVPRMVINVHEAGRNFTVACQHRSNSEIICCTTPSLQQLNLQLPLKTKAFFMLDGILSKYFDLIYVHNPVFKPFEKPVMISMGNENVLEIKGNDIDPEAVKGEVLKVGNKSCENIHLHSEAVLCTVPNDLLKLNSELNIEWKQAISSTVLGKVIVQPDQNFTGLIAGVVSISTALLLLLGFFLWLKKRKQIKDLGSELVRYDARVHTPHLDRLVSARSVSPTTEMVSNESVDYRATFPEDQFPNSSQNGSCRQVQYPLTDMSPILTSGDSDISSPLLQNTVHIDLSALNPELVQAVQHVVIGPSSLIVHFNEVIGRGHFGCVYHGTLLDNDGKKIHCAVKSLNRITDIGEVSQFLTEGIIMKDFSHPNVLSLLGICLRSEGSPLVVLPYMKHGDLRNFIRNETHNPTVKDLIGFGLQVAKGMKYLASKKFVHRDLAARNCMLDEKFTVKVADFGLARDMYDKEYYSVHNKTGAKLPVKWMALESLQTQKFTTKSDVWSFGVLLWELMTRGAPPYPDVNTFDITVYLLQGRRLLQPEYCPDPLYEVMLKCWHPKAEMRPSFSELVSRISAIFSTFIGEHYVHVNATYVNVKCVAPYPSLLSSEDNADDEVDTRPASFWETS
Summary of the method: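 LANCE TR-FRET assay with c-MET at 1 nM final after a 5 min room-temperature preincubation with compound (11-point, 3-fold series, 2500–0.042 nM final, 4% DMSO). ULight-JAK-1 (Tyr1023) peptide (100 nM final) and ATP (10 μM final) reacted 60 min in the dark. Inhibition was taken relative to controls, then IC50 fitted.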

SMILES	IC50 (Ba/F3 LMNA-NTRK1 cells) [nM]	IC50 (TRKA kinase) [nM]	IC50 (Ba/F3-AXL cells) [nM]	IC50 (c-MET kinase) [nM]
CCOc1ccn(-c2ccc(F)cc2)c(=O)c1C(=O)Nc1ccc(Oc2ccnc3cc(OCC(C)(C)O)c4c(c23)OCCO4)cc1Cl [Example 142, N-(2-chloro-4-((5-(2-hydroxy-2-methylpropoxy)-2,3-dihydro-[1,4]dioxino[2,3-f]quinolin-10-yl)oxy)phenyl)-1-(4-fluorophenyl)-4-ethoxy-2-oxo-1,2-dihydropyridine-3-carboxamide]	< 50	< 50	< 50	≤ 50
CCOc1ccn(-c2ccc(F)cc2)c(=O)c1C(=O)Nc1ccc(Oc2ccnc3cc(OCC4(N)CC4)c4c(c23)OCCO4)c(F)c1 [Example 105, N-(4-((5-((1-aminocyclopropyl)methoxy)-2,3-dihydro-[1,4]dioxino[2,3-f]quinolin-10-yl)oxy)-3-fluorophenyl)-4-ethoxy-1-(4-fluorophenyl)-2-oxo-1,2-dihydropyridine-3-carboxamide]	50 to 200	< 50	< 50	≤ 50
CC(C)n1cc(C(=O)Nc2ccc(Oc3ccnc4cc(OCCCN5CCC(C)(O)CC5)c5c(c34)OCCO5)c(F)c2)c(=O)n(-c2ccc(F)cc2)c1=O [Example 94, N-(3-fluoro-4-((5-(3-(4-methyl-4-hydroxypiperidin-1-yl)propoxy)-2,3-dihydro-[1,4]dioxino[2,3-f]quinolin-10-yl)oxy)phenyl)-3-(4-fluorophenyl)-1-isopropyl-2,4-dioxo-1,2,3,4-tetrahydropyrimidine-5-carboxamide]	50 to 200	< 50	< 50	≤ 50
COc1cc2nccc(Oc3ccc(NC(=O)c4cn(C)c(=O)n(-c5ccc(F)cc5)c4=O)cc3F)c2c2c1OCCO2 [Example 13, N-(3-fluoro-4-((5-methoxy-2,3-dihydro-[1,4]dioxino[2,3-f]quinolin-10-yl)oxy)phenyl)-3-(4-fluorophenyl)-1-methyl-2,4-dioxo-1,2,3,4-tetrahydropyrimidine-5-carboxamide]	< 50	< 50	< 50	≤ 50
